Kd data for 1 compound are collected here from ChEMBL document CHEMBL4610107, “Ene-yne Hydroquinones from a Marine-derived Strain of the Fungus Pestalotiopsis neglecta with Effects on Liver X Receptor Alpha” (J Nat Prod, 2020).

This experiment addresses T1, Oxysterols receptor LXR-alpha (Homo sapiens, UniProt Q13133).
T1 sequence (Q13133 whole entry): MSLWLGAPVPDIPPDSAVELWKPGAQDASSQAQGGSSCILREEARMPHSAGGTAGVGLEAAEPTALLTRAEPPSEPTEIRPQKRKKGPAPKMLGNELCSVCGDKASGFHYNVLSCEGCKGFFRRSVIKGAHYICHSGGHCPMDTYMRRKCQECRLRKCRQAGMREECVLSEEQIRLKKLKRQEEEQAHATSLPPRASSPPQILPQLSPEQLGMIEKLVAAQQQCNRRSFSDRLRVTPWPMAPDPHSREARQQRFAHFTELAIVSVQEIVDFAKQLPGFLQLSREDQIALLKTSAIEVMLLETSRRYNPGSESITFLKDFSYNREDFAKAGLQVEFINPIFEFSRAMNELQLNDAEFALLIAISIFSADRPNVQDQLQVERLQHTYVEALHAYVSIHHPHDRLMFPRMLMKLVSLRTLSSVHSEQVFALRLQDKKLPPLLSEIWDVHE
As to the kind of experiment: Binding affinity to LXRalpha (unknown origin) by surface plasmon resonance assay.

As for `O=C(O)Cc1cccc(OCCCN(Cc2cccc(C(F)(F)F)c2Cl)CC(c2ccccc2)c2ccccc2)c1`, the Kd result is on record as “Not Active”.
